Key:
[1] = target: T1, PAR-1 receptor (Homo sapiens, UniProt P25116); test: PAR-1 FLIPR Assay; format: cell-based; conditions: HEK 293 cells, calcium signal after PAR-1 selective receptor-activating peptide at EC80
T1 construct: endogenous in cells; host or cells: HEK 293
T1 sequence (P25116 22-425): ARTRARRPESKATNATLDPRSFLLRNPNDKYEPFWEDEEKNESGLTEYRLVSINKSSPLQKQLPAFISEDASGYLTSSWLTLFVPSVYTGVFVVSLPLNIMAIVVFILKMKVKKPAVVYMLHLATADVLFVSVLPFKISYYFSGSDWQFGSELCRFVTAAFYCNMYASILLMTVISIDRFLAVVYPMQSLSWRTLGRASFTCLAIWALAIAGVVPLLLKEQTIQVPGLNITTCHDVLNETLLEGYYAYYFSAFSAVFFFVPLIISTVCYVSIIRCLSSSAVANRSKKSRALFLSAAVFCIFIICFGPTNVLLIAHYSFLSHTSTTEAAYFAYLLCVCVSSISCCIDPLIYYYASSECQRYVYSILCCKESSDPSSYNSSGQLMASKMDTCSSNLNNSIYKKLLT
Procedure: This assay measures the potency of the inventive compounds as PAR-1 receptor antagonists.
Frozen HEK 293 Cells were plated in 384-well PDL coated plates at 12000 cells/well in 50 uL of DMEM media containing 10% FBS, pen/strep/L-Glutamine and non-essential amino acids, incubated overnight at 37° C./5% CO2. Media was then removed from the cells, incubated with 33 uL of Calcium-5 dye in assay buffer (Hank's buffer containing 20 mM HEPES, 0.04% Chaps and 2.5 mM Probenecid) for 60 minutes at 37° C. 2 uL of varying concentrations of compound in 40% DMSO in assay buffer (final DMSO concentration is 2.3%) were then added to the cells and incubated at 25° C. for 30 minutes. The plates were added to the FLIPR Tetra®, the device added 5 uL of PAR-1 selective receptor-activating peptide (sequence Ala-parafluoroPhe-Arg-Cha-Cit-Try-Nh2, prepared in water) at a concentration equal to the effective concentration that achieved 80% activation of signaling on the day of the experiment. The range of peptide was from 1.5-3 μM. The final volume was 40 uL/well, with 2% DMSO. The FLIPR was read at an excitation wavelength of 480 nm and an emission wavelength of 535 nm, and performed 60 scans over a 1-2 min reading time. The data were analyzed by taking the peak signal over a portion of the range of the 60 scans and dividing this signal by the minimum signal for that same range. The data were expressed as percent inhibition of the maximum divided by the minimum signal achieved at 80% activation produced by the PAR1 activating peptide on the test day. The compounds of Examples 1-9 were tested in the assay described above and the data collected for these compounds is provided.

[2] = target: CYP3A4 (column heading prints CYP2D6; method and table sentence say CYP3A4) (Homo sapiens, UniProt P08684); test: CYP MUX (3A4) RI; format: in vitro ADME; conditions: pH 7.4, probe testosterone (75 µM); human liver microsomes; method describes testosterone as substrate for 3A4
CYP3A4 (column heading prints CYP2D6; method and table sentence say CYP3A4), sequence (P08684 2-503): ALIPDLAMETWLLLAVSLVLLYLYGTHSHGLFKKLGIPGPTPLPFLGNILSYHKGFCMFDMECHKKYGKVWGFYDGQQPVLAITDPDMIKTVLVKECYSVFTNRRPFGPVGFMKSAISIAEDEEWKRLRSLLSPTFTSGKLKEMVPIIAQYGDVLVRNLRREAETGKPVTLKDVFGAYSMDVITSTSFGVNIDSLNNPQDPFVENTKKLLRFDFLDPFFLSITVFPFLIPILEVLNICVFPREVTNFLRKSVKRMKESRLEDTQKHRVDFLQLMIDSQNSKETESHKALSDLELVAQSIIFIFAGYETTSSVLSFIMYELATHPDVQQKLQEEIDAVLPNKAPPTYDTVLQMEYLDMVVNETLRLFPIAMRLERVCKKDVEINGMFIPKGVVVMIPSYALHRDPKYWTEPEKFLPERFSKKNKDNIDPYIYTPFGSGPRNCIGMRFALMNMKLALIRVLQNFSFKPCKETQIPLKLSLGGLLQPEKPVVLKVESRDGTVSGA
From the text: This assay measures inhibition of CYP3A4 by a compound. Cytochromes P450 (CYPs) constitute a superfamily of heme-containing enzymes that recognize and metabolize a large number structurally diverse xenobiotics in the human body. CYP3A4 constitutes the largest portion of CYP enzymes in the liver that accounts for the metabolism of almost 50% of all drugs. This assay is used to evaluate the potential of a compound for developing DDIs. (Clarke, S. E.; Jones B. C. Drug-Drug Interactions, New York: Marcel Dekker; 2002. pp. 53-88).
Compound dilutions and assay-ready plates were prepared on a TTP Labtech Mosquito® HTS. Assay conduction was fully automated on a customized Screening Platform from Caliper (now PerkinElmer) containing a Mitsubishi robotic plate handler, Liconic incubators, a Caliper Zephyr® liquid handling workstation equipped with temperature-controlled deck positions, a Biotek MultiFlo™ dispenser and an Agilent PlateLoc heat sealer. Assay plates were Corning Costar® 384 well PP plates. High throughput mass spectrometric readout was performed on a RapidFire® 300 system coupled to an AB Sciex API 4000™ triple quadrupole device. CYP isoform 3A4 was incubated in a separate reaction of 50 μL final volume. 25 μL of HLM (human liver microsomes, BD UltraPool™ 150, 0.25 mg/mL final concentration) and the respective substrate, testosterone (75 μM) for 3A4, in potassium phosphate buffer (100 mM, pH=7.4) were added to 250 nL of stamped compound solution (10 mM in DMSO). The reactions were started upon addition of 25 μL of a co-factor solution containing magnesium chloride (3.3 mM), glucose-6-phosphate (3.3 mM), glucose-6-phosphate dehydrogenase (1.4 units) and NADP (1 mM) in potassium phosphate buffer (100 mM, pH=7.4) and incubated on deck at 37° C. for 10 min. 8 μL of each reaction were transferred to the same readout plated filled with 48 μL of stop solution containing internal standards (concentration in final readout plate), 6-hydroxytestosterone-D7 (0.5 μM), 4′-hydroxydiclofenac-D4′-(0.2 μM), and dextrorphan-D3 (0.01 μM), in acetonitrile with 0.5% formic acid. After heat sealing, plates were stored at −20° C. for at least 30 min, centrifuged and subjected directly to RapidFire®/MS analysis.
(§1) Table 4 summarizes the selectivity of the inventive compounds in the CYP3A4 assay and the ability of the inventive compound to inhibit hERG.

[3] = target: T2, hERG channel (Homo sapiens, UniProt Q12809); test: MK-499 Filter Binding Assay; conditions: [35S]MK-0499 radioligand competition, membranes of HEK293 cells expressing hERG, read-out: MK499 IC50; for IC50 at 90 min: human, pH 7.4, probe [35S]MK-0499 radioligand
T2 construct: expressed in transfected cells; host or cells: HEK293, stably transfected; membranes
T2 sequence (Q12809 whole entry): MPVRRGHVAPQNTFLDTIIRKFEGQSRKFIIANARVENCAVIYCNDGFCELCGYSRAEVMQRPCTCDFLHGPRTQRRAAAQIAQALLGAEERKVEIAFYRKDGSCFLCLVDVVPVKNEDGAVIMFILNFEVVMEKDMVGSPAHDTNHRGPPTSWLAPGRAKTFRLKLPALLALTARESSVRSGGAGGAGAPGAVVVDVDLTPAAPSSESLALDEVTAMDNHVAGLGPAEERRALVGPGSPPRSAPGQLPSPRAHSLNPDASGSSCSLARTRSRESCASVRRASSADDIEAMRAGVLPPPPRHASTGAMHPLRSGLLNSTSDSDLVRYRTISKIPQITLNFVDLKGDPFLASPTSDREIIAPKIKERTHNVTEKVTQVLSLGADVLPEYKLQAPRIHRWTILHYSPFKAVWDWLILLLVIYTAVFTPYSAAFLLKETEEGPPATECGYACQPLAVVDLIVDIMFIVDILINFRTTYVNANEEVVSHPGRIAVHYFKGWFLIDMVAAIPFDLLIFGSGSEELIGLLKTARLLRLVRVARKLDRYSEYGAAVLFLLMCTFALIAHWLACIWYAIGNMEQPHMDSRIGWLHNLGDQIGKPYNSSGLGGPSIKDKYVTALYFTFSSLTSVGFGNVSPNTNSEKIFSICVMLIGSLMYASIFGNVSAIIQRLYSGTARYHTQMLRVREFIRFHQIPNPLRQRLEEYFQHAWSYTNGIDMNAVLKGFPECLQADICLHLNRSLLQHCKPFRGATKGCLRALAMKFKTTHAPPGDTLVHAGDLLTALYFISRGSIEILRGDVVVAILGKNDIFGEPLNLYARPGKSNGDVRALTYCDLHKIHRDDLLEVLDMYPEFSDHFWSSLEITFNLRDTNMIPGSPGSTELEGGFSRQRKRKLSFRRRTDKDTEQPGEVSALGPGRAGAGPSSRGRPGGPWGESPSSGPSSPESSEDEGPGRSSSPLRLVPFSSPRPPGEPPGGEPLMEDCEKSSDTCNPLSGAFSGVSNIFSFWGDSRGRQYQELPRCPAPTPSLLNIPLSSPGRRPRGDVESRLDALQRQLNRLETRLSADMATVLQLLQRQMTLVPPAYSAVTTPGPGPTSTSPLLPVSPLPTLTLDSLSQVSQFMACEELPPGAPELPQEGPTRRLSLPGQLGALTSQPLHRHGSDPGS
From the text: MK-499 Filter Binding Assay
This assay is used to evaluate the potential of a compound to cause drug-induced log QT syndrome.
Drug cardiac arrhythmia is an important safety concern for pharmaceutical development and health regulatory authorities. Blockade of heterologously-expressed human ether-à-go-go gene (hERG) channel prolongs the duration of the cardiac action potential leading to a long QT interval that can lead to sudden death (De Ponti, F.; et at Drug Safety 2002, 25, pp. 263-286). It is important to have compounds devoid of hERG channel activity as measured by an in vitro assay. Affinity of compounds for the hERG channel was evaluated in radioligand competition experiments using HEK293 cells that were stably transfected with the hERG channel and radiolabeled ligand, MK-499 a potent antiarrhythmic. This assay correlates well with QT prolongation in vivo (Jamieson, C.; et al., J. Med. Chem. 2006, 49, pp. 5029-5046).
25 μL Target membranes (in assay buffer: 10 mM HEPES/NaOH, pH 7.4, 70 mM NaCl, 60 mM KCl, 2 mM MgCl2, 1 mM CaCl2) purified from a HEK293 cell line expressing the human Ether-à-go-go Related Gene (hERG) ion channel, 1 μL test compound in 10 mM DMSO and 25 μL (6,000 cpm/well; in assay buffer) [35S]MK-0499 radioligand (Merck/Perkin Elmer) are added to the assay plate (Axygen; 384 Deep well “Diamond Plate”, clear). After incubation of the binding reaction at room temperature (RT) for 90 min 50 μL of the assay were transferred to a MultiscreenHTS 384 FC filter plate (Millipore), which has been pre-wetted with 20 μL 0.01% PEI/0.01% Triton X-100 for at least 30 min at RT. Then, 30 μL it wash buffer (10 mM HEPES/NaOH, pH 7.4, 130 mM NaCl, 2 mM MgCl2, 1 mM CaCl2) equilibrated to RT were added to each well of the assay plate and subsequently transferred to the filter plate. The assay mixture was aspirated through the filter plate using a Biotek ELx405™ washer. The filter plate was washed twice with 100 μl cold wash buffer per wash and well and then dried in a drying oven for at least 75 min at 55° C. Afterwards, the bottom of each filter plate was heat sealed with a solid foil seal, then 10 μL of Microscint™ 0 (Perkin Elmer) were added to each well of the filter plate and finally, the top of each filter plate was sealed with a clear seal. The plates were stored for at least 20 min in a MicroBeta2 reader (Perkin Elmer) before they are counted (60 sec/well).
as §1

SMILES | IC50 [1] [µM] | IC50 at 10 min [2] [µM] | IC50 at 90 min [3] [µM] | IC50 [3] [µM]
C[C@H]1OC(=O)[C@]2(O)CC(F)(F)[C@@H](C)[C@H](/C=C/c3ccc(-c4cccnc4C#N)cn3)[C@H]12 [Example 1, 6′-((E)-2-((3R,3aR,4R,5S,7aS)-6,6-difluoro-7a-hydroxy-3,5-dimethyl-1-oxooctahydroisobenzofuran-4-yl)vinyl)-[3,3′-bipyridine]-2-carbonitrile] | 0.0059 | ≥ 50 | ≥ 60 | –
Cc1ccc(-c2ncccc2-c2ccc(/C=C/[C@@H]3[C@@H]4[C@@H](C)OC(=O)[C@]4(O)CC(F)(F)[C@H]3C)nc2)s1 [Example 7, (3R,3aR,4R,5S,7aS)-6,6-difluoro-7a-hydroxy-3,5-dimethyl-4-((E)-2-(2′-(5-methylthiophen-2-yl)-[3,3′-bipyridin]-6-yl)vinyl)hexahydroisobenzofuran-1(3H)-one] | 0.0152 | ≥ 50 | – | 20.8
COc1ncccc1-c1ccc(/C=C/[C@@H]2[C@@H]3[C@@H](C)OC(=O)[C@]3(O)CC(F)(F)[C@H]2C)nc1 [Example 3, (3R,3aR,4R,5S,7aS)-6,6-difluoro-7a-hydroxy-4-((E)-2-(2′-methoxy-[3,3′-bipyridin]-6-yl)vinyl)-3,5-dimethylhexahydroisobenzofuran-1(3H)-one] | 0.0054 | ≥ 50 | ≥ 60 | –
C[C@H]1OC(=O)[C@]2(O)CC(F)(F)[C@@H](C)[C@H](/C=C/c3ccc(-c4cccnc4C4CC4)cn3)[C@H]12 [Example 6, (3R,3aR,4R,5S,7aS)-4-((E)-2-(2′-cyclopropyl-[3,3′-bipyridin]-6-yl)vinyl)-6,6-difluoro-7a-hydroxy-3,5-dimethylhexahydroisobenzofuran-1(3H)-one] | 0.0104 | ≥ 50 | ≥ 60 | –
C[C@H]1OC(=O)[C@]2(O)CC(F)(F)[C@@H](C)[C@H](/C=C/c3ccc(-c4cccnc4Cl)cn3)[C@H]12 [Example 4, (3R,3aR,4R,5S,7aS)-4-((E)-2-(2′-chloro-[3,3′-bipyridin]-6-yl)vinyl)-6,6-difluoro-7a-hydroxy-3,5-dimethylhexahydroisobenzofuran-1(3H)-one] | 0.0078 | ≥ 50 | – | 18.7
C[C@H]1OC(=O)[C@]2(O)CC(F)(F)[C@@H](C)[C@H](/C=C/c3ccc(-c4cccnc4-c4ccccc4)cn3)[C@H]12 [Example 2, (3R,3aR,4R,5S,7aS)-6,6-difluoro-7a-hydroxy-3,5-dimethyl-4-((E)-2-(2′-phenyl-[3,3′-bipyridin]-6-yl)vinyl)hexahydroisobenzofuran-1(3H)-one] | 0.009 | 28.5 | – | 39.8
C[C@H]1OC(=O)[C@]2(O)CC(F)(F)[C@@H](C)[C@H](/C=C/c3ccc(-c4cccnc4N4CC(F)(F)C4)cn3)[C@H]12 [Example 9, (3R,3aR,4R,5S,7aS)-4-((E)-2-(2′-(3,3-difluoroazetidin-1-yl)-[3,3′-bipyridin]-6-yl)vinyl)-6,6-difluoro-7a-hydroxy-3,5-dimethylhexahydroisobenzofuran-1(3H)-one] | 0.0924 | ≥ 50 | ≥ 60 | –
C[C@H]1OC(=O)[C@]2(O)CC(F)(F)[C@@H](C)[C@H](/C=C/c3ccc(-c4cccnc4F)cn3)[C@H]12 [Example 5] | 0.0162 | ≥ 50 | ≥ 60 | –
C[C@H]1OC(=O)[C@]2(O)CC(F)(F)[C@@H](C)[C@H](/C=C/c3ccc(-c4cccnc4-c4cncn4C)cn3)[C@H]12 [Example 8, (3R,3aR,4R,5S,7aS)-6,6-difIuoro-7a-hydroxy-3,5-dimethyl-4-((E)-2-(2′-(l-methyl-1H-imidazol-5-yl)-[3,3′-bipyridin]-6-yl)vinyl)hexahydroisobenzofuran-1(3H)-one] | – | ≥ 50 | ≥ 60 | –

Reference: patent US9808473B2, “Preparation and use of 3-pyridyl substituted-6,6-difluoro bicyclic himbacine derivatives as par-1 receptor antagonists” (Merck Sharp & Dohme Corp., priority 2013, dated 2017)
